{
  "source": "patent US20250269022A1",
  "about": "“ASSESSING AND TREATING CANCER” (Mayo Foundation for Medical Education and Research, priority 2021, published 2025)",
  "key": {"JeKo-1 cells [1]": {"tested_on": "JeKo-1 cells", "experiment": "CART19 killing of luciferase+ JeKo-1 cells in combination with small molecules", "format": "cell-based", "procedure": "CART19 cells were cultured in combination with different molecules at the indicated ratios/concentration, and in combination with the luciferase+ JeKo-1 cells at the indicated E:T ratios. Killing was determined after 24 hours using bioluminescence imaging."}, "CART cells [2]": {"tested_on": "CART cells", "experiment": "EdU assay of cycling CART cells", "format": "cell-based", "conditions": "navitoclax treated", "procedure": "Longitudinal navitoclax treatment of CART cells. […] […] Longitudinal treatments included two parts. […] Cells were co-cultured for 3-5 days, and then cells were harvested and surface staining with […]3 (eBioscience, San Diego, CA, USA) and LIVE/DEADTM Fixable Aqua Dead Cell Stain Kit (Invitrogen, Carlsbad, CA, USA) was performed."}, "JeKo1 cell line": {"tested_on": "JeKo1 cell line", "experiment": "In vivo JeKo1 xenograft with navitoclax-treated CART cells", "parameters": "species or system NSG mice", "from_the_text": "NSG mice were engrafted with the luciferase positive, CD19+ JeKo1 cell line I.V. One week later, mice underwent bioluminescence imaging (BLI) to determine the level of the disease and then randomized to treatment with CART cells. Mice then underwent weekly BLI to measure disease burden and were followed for survival."}, "JeKo-1 cells [3]": {"tested_on": "JeKo-1 cells", "experiment": "Cytotoxicity (killing) assay of CART cells against luciferase+ JeKo-1 cells, with senolytics", "procedure": "D8 CART cells were treated with navitoclax (0 μM, 0.5 μM, 1 μM, 2 μM, or 4 μM) for 24 hours and then divided into two groups. In the first group, navitoclax was washed away for proliferation and cytotoxicity assays. In the second group, navitoclax treatment was maintained during proliferation and cytotoxicity assays.\nLongitudinal navitoclax treatment of CART cells. D15 and D22 CART cells were generated to mimic possible dysfunctions (e.g., exhaustion, senescence, etc.) that CART cells can develop. Serial activation of CART cells can induce T cell senescence during CART cell generation. This experiment was designed to selectively remove senescing CART cells during CART cell proliferation. During this experiment CART cells were pretreated with navitoclax, the proliferation, EDU, and cytotoxicity assays were done in the absence of navitoclax. Longitudinal treatments included two parts. Part I was a typical CART cell production protocol except for addition of navitoclax at D7 for 24 hours. Briefly, CART cells were activated on day 1, transduced on day 2, and debeaded on day 6. On day 7, CART cells were treated with navitoclax (0 μM, 0.125 μM, 0.25 μM, 0.5 μM, 0.75 μM, 1 μM, or 2 μM). On day 8, the navitoclax was washed away, and the CART cells were prepared for cytotoxicity assays and proliferation assays. For part II, JeKo-1 UDT was added to the CART cells on days 8 and 10, the media was replaced on day 12, and navitoclax was added on day 13. On day 14, the navitoclax was washed away, and the CART cells were prepared for cytotoxicity assays and proliferation assays or JeKo-1 IR was added and the CART cells were prepared for an EdU assay. The CART cells were provided several resting times after being activated by JeKo-1 to provide plenty of resting time to differentiate reversible exhaustion and irreversible T cell senescence. This assay focuses on D8 (freshly generated CART cells), D15 (D8 cells activated with JeKo-1 for a week as indicated as part II in the figure), and D22 CART cells (additional activation summarized in part II on D15 CART cells).\nFor killing assays, the CD19+ Luciferase+ mantle cell lymphoma cell like JeKo-1 cells were incubated with effector T cells for 24, 48, or 72 hours. Killing was calculated by bioluminescence imaging on a Xenogen IVIS-200 Spectrum camera (PerkinElmer, Hopkinton, MA, USA) as a measure of residual live cells. Samples were treated with 1 μL D-luciferin (30 μg/mL) per 100 μL sample volume (Gold Biotechnology, St. Louis, MO, USA), for 10 minutes prior to imaging."}, "CART cells [4]": {"tested_on": "CART cells", "experiment": "Proliferation assay of CART cells co-cultured with JeKo-1 cells, with navitoclax or venetoclax", "format": "cell-based", "from_the_text": "Longitudinal navitoclax treatment of CART cells. […] Longitudinal treatments included two parts.\nFor proliferation assays, effector cells (CART cells), and irradiated target cells (CD19+ JeKo 1 cells) were co-cultured at different ratios and with different concentrations of the compounds. Cells were co-cultured for 3-5 days, and then cells were harvested and surface staining with antihCD3 (eBioscience, San Diego, CA, USA) and LIVE/DEAD™ Fixable Aqua Dead Cell Stain Kit (Invitrogen, Carlsbad, CA, USA) was performed."}, "PD-L1": {"biological_target": "T1, PD-L1 (Homo sapiens, UniProt Q9NZQ7)", "T1 construct": "These PPP preparations from the peripheral blood of untreated CLL patients are the source of the samples called CLL-derived EVs; from tissue; host or cells: extracellular vesicles in platelet-poor plasma of untreated CLL patients, co-cultured with CART19 cells and then JeKo-1 cells", "T1 sequence (Q9NZQ7 19-290)": "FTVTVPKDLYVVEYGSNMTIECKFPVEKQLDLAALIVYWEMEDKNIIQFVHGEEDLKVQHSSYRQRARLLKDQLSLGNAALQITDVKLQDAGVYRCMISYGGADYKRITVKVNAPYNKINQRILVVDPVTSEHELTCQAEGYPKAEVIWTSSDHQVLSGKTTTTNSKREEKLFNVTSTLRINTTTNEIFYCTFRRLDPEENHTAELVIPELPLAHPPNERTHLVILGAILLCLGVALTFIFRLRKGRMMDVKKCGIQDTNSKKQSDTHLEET", "experiment": "CART19 antigen-specific proliferation with PD-L1 blockade in presence of PD-L1high CLL-derived EVs", "format": "cell-based", "conditions": "PD-L1high CLL-derived EVs 100:1, 6 hours, JeKo-1 at E:T 5:1, antibody 20 μg/mL", "procedure": "CART19 and JeKo-1 or JeKo-1 cells irradiated at 120 Gy were cocultured at a 1:1 ratio with or without CLL-derived EVs. T cells for functional assays were cultured in T cell medium containing X-VIVO 15 (Lonza, Walkersville, MD, USA), 10% human serum albumin (Innovative Research, Novi, MI, USA), and 1% penicillin-streptomycin-glutamine (Gibco, Gaithersburg, MD, USA). EVs were cocultured with CART19 cells at 100:1, 10:1, 5:1, and 1:1 EV/CART cell ratios using three biological replicates of CLL-derived EVs at 37° C., 5% CO2, and then co-cultured with primary CLL cells or JeKo-1 cells as indicated in the specific experiment. Cell supernatant was collected at 24 hours, and cells were analyzed by flow cytometry. To assess killing and proliferation, UTD T cells, CART19 cells, and CART19 cells co-cultured with CLL-derived EVs at a 100:1 EV/CART cell ratio were incubated at 37° C., 5% CO2 for 6 hours before adding JeKo-1 target cells. […] Cells were analyzed by flow cytometry after 48 hours of incubation."}},
  "note": "“Also recorded” adds a separate entry of the source. Where two headings read alike, the source gives them in different places.",
  "data": [
    {"compound": "O=S(=O)(c1cccc2cnccc12)N1CCCNCC1", "note": "[fasudil]", "values": [
      {"measurement": "CART19 antigen specific killing", "setting": "JeKo-1 cells [1]; combination with CART19 cells, 24 hours, bioluminescence", "value": "improved CART19 antigen specific killing"}
    ]},
    {"compound": "CC1(C)CCC(c2ccc(Cl)cc2)=C(CN2CCN(c3ccc(C(=O)NS(=O)(=O)c4ccc(N[C@H](CCN5CCOCC5)CSc5ccccc5)c(S(=O)(=O)C(F)(F)F)c4)cc3)CC2)C1", "note": "[navitoclax]", "values": [
      {"measurement": "EdU positivity of CART cells", "setting": "CART cells [2]; D8 and D22 CART cells", "value": "similar"},
      {"measurement": "EdU positivity of CART cells", "setting": "CART cells [2]; D15 CART cells", "value": "decreased"},
      {"measurement": "Tumor burden of mice", "setting": "JeKo1 cell line; D22 CART cells treated with or without navitoclax, 22 days after CART cell transplantation", "value": "not different"},
      {"measurement": "Antitumor activity of CART cells in vivo", "setting": "JeKo1 cell line; navitoclax pretreatment of CART cells", "value": "did not increase antitumor activity; also recorded: did not improve CART cell activity"},
      {"measurement": "Cytotoxicity of drug alone against JeKo-1", "setting": "JeKo-1 cells [3]; 0:1 E:T ratio (no CART)", "value": "cytotoxic against JeKo-1"},
      {"measurement": "CART cell cytotoxicity against JeKo-1 in combination with senolytic", "setting": "JeKo-1 cells [3]; D8 CART cells co-cultured with JeKo-1 and drug, 48 hours", "value": "increased CART cell cytotoxicity"},
      {"measurement": "CART cell cytotoxicity against JeKo-1", "setting": "JeKo-1 cells [3]; navitoclax maintained in assay, higher navitoclax concentrations", "value": "decreased CART cell cytotoxicity"},
      {"measurement": "CART cell cytotoxicity against JeKo-1", "setting": "JeKo-1 cells [3]; navitoclax pre-treatment 24 hours, assay without navitoclax", "value": "did not result in different cytotoxicity"},
      {"measurement": "CART cell proliferation against JeKo-1 in combination with senolytic", "setting": "CART cells [4]; CART cells co-cultured with JeKo-1 in presence of drug", "value": "decreased CART cell proliferation"},
      {"measurement": "CART cell proliferation", "setting": "CART cells [4]; D8 CART cells continuously treated with navitoclax, co-culture with JeKo-1, vs untreated CART cells", "value": "decreased proliferation"},
      {"measurement": "D22 CART cell proliferation", "setting": "CART cells [4]; longitudinal navitoclax treatment vs navitoclax untreated CART cells, in vitro", "value": "increase in D22 CART proliferation"},
      {"measurement": "CART cell proliferation over time", "setting": "CART cells [4]; longitudinal navitoclax treatment, D8, D15, D22", "value": "decreased proliferation of CART cells through time; also recorded: decreases over time"}
    ]},
    {"compound": "CC(C)(CO)[C@@H](O)C(=O)NCCC(=O)NCCSSCCNC(=O)CCNC(=O)[C@H](O)C(C)(C)CO", "note": "[panthethine, D-pantethine]", "values": [
      {"measurement": "CART19 antigen specific killing", "setting": "JeKo-1 cells [1]", "value": "improved CART19 antigen specific killing"}
    ]},
    {"compound": "CC1(C)CCC(CN2CCN(c3ccc(C(=O)NS(=O)(=O)c4ccc(NCC5CCOCC5)c([N+](=O)[O-])c4)c(Oc4cnc5[nH]ccc5c4)c3)CC2)=C(c2ccc(Cl)cc2)C1", "note": "[venetoclax]", "values": [
      {"measurement": "CART cell cytotoxicity against JeKo-1 in combination with senolytic", "setting": "JeKo-1 cells [3]", "value": "increased CART cell cytotoxicity"}
    ]},
    {"compound": "atezolizumab [anti-PD-L1 antibody]", "values": [
      {"measurement": "Reversal of EV-mediated inhibition of CART19 antigen-specific proliferation", "setting": "PD-L1", "value": "did not improve"},
      {"measurement": "Reversal of EV-mediated inhibition of CART19 antigen-specific proliferation", "setting": "PD-L1; listed as PD-L1 blocking antibodies", "value": "no statistically significant reversal"}
    ]}
  ]
}
